Experiments:
hCB2 receptor = biological target: T1, hCB2 receptor (Homo sapiens, UniProt P34972); assay: [3H]CP55,940 competitive binding assay, CB2 (HEK293 cells expressing hCB2); settings: against [3H]CP55,940; HEK293 hCB2 membranes
T1 construct: expressed in transfected cells; host or cells: HEK293
Description: Compounds were tested for their CB1 and CB2 receptor using membrane preparations from rat brain or HEK293 cells expressing hCB2 receptor, respectively, and [^3H]CP55,940 as previously described 1, 36-38. Stock solutions of the compounds (10 mM in DMSO) were diluted in TME buffer (50 mM Tris-HCL, 3 mM MgCl2, 100 mM NaCl, 0.2 mM EDTA, pH 7.4) with 0.1% BSA and transferred to 96 well plates containing [^3H]CP55,940 (specific activity 128 Ci/mmol; NIDA) at a final concentration of 0.76 nM. Non-specific binding was assessed in the presence of 100 nM CP55,940. The binding reaction was initiated with the addition of the respective membrane suspension (˜50 μg membrane protein) followed by incubation at 30° C. with gentle agitation in a shaking water bath for 60 minutes. […] The filter plates were washed with ice-cold wash buffer (50 mM Tris-base, 5 mM MgCl2 with 0.5% BSA) and bound radioactivity was determined using a Packard TopCount Scintillation Counter. The results were analyzed using nonlinear regression to determine the actual IC50 and the Ki values of the ligand (Prizm by GraphPad Software, Inc.). All data were in duplicate with IC50 and Ki values determined from at least two independent experiments.
The affinity of a compound for CB1 vs. CB2 is determined by the ratio of the inhibitory constants (Ki), as determined by the competitive binding assay.

Rats [1] = assay: Taste reactivity studies (conditioned gaping, saccharin preference); assay type: in vivo, rat; settings: for Mean (±SEM) saccharin preference ratio: 2-bottle preference test
Description: Rats were implanted with intraoral cannulae and 24 hrs prior to the surgical procedure, they were administered a prophylactic antibiotic (Derapin, 100 mg/kg, sc; Ayerst). On the day of surgery, the rats were anaesthetized with isofluorane gas and were administered Anafen (7.0 mg/kg, sc; Merial), a nonsteroidal anti-inflammatory drug (NSAID) with analgesic properties. A 3.0 cm^2 patch of fur was shaved at the back of the neck just above the scapula and the area was surgically prepared [Betadine surgical scrub (Purdue Frederick) and alcohol]. A thin-walled 15-gauge stainless steel needle was inserted at the back of the neck, directed s.c., around the ear and brought out behind the first molar inside the mouth. A length of IntraMedic polyetheylene tubing with an inner diameter of 0.86 mm and an outer diameter of 1.27 mm was then run through the needle after which the needle was removed. Two circular elastic discs were placed over the tubing and drawn to the exposed skin at the back of the neck for the purpose of stabilizing the cannula. The tubing was held secure in the oral cavity by an o-ring, which was sealed behind the tubing prior to cannulation surgery. For the purposes of conditioning and testing, the cannula was connected to the infusion pump (Harvard Apparatus, South Natick, Mass.) for delivery of the solution by slipping the tubing of the cannula inside a second polyethylene tube (inner diameter 1.19 mm, outer diameter 1.70 mm) attached to the infusion pump. Two rats were subsequently removed from the study due to an ineffective cannula.
Five days after surgery and prior to conditioning (day 1), rats were individually placed in the Plexiglas taste reactivity chamber (22.5×26×20 cm) with their cannula attached to the infusion pump for fluid delivery. The rats were habituated to the taste reactivity procedure by infusing them with water for a period of 5 min at a rate of 1.0 ml/min after which they were returned to their home cage. On day 2, the rats were individually taken to the chamber for a single conditioning trial. They were intraorally infused with 0.1% saccharin solution for 5 min at a rate of 1.0 ml/min while their orofacial and somatic responses were videotaped from a mirror at a 45° angle below the chamber. Immediately after the saccharin infusion the rats were injected with the appropriate dose of Compound 3, according to random assignment: 0.0 mg/kg (vehicle; n=8), 2.0 mg/kg (n=7), 4.0 mg/kg (n=7), 8.0 mg/kg (n=8). On day 5, the animals were given a second adaptation trial with a 5-min intraoral infusion of water.
Taste reactivity testing occurred on day 6, 96 hr after conditioning. The rats were taken to the chamber and following a period of 1 min were infused with 0.1% saccharin solution over a period of 5 min (1.0 ml/min) while being videotaped. Immediately after the session, the rats were returned to their home cage. On day 7, following 15 hr of water deprivation, the rats were given a 2-bottle preference test. The rats were presented with a graduated tube containing 0.1% saccharin solution and a graduated tube containing water for a period of 120 min. The amount consumed from each bottle during the 120 min of drinking was converted to a preference score: Amount consumed of saccharin solution/amount consumed of saccharin+amount consumed of water. The taste reactivity videotapes were scored using the Observer (Noldus Information Technology, Sterling, Va.) event-recording program. The behaviors scored included the frequency of gaping, chin rubs, ingestive reactions, passive drips and activity. Gaping was defined as rapid, large-amplitude opening of the mandible with retraction of the corners of the mouth. Chin rubbings were defined as chin or mouth in direct contact with the floor or wall of the chamber and forward projections of the body. […]

hCB1 = biological target: T2, hCB1 (Homo sapiens, UniProt P21554); assay: Forskolin-stimulated cAMP assay; assay type: cell-based
T2 construct: expressed in transfected cells; host or cells: HEK293
Description: Intracellular cAMP levels were measured with a competitive protein-binding assay using intact HEK293 cells expressing hCB1 or hCB2 and a cAMP immunoassay kit from Sigma (St. Louis, Mo.). In short, forskolin stimulated cells were incubated with various concentrations of compound, cAMP anti-body and cAMP conjugate for 2 hours at ambient temperature. The reaction was stopped by emptying the wells followed by the addition of p-NPP substrate and incubation for 1 hour. […] The results were expressed as percent inhibition of forskolin-stimulated cAMP accumulation and EC50 curves were generated with the use of GraphPad Prism software.

Rats [2] = assay: Operant lever pressing on FR5 schedules; assay type: in vivo, rat
Description: Following the initial training period, rats (n=8 each group) were injected with drug and then tested once a week on Thursdays. For experiments 1 and 2, Compound 3 or Compound 2, respectively were injected IP at doses of 1.0, 2.0, 4.0, or 8.0 mg/kg or vehicle. Pretreatment time for these two experiments was 30 min. For experiments 3 and 4, rats were given drug or vehicle orally 1 hour before testing. In experiment 3, rats were given vehicle or 8.0, 16.0, or 32.0 mg/kg Compound 3. In experiment 4, rats received vehicle or Compound 2 at doses of 4.0, 8.0, or 16.0 mg/kg. All doses were given in a randomized order using a repeated measures design.

T2 sequence (P21554 whole entry): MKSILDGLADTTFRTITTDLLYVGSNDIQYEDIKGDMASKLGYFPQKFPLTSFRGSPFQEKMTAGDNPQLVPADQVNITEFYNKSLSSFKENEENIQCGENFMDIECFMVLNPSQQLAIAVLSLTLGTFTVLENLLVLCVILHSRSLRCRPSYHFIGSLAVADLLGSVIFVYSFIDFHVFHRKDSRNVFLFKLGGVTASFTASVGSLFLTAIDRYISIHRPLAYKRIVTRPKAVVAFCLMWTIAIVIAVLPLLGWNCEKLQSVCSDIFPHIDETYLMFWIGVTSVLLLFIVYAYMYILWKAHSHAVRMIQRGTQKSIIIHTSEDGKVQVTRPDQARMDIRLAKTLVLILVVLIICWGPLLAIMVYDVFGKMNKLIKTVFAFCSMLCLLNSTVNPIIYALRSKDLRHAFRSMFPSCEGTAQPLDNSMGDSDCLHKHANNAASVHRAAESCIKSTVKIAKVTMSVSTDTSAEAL
T1 sequence (P34972 whole entry): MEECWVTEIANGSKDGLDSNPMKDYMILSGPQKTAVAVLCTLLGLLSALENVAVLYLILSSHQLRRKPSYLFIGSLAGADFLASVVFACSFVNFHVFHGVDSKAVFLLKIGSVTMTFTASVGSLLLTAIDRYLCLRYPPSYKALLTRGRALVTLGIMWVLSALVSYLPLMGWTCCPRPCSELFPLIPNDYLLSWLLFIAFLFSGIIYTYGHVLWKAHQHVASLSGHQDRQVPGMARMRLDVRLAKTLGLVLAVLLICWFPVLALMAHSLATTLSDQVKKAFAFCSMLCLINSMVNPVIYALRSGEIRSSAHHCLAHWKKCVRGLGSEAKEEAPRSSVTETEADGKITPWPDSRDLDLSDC

Ki (hCB2 receptor): 92 nM | ingestion (hedonic) taste reactions, Mean±SEM (Rats [1]; 2.0 mg/kg): 10.5 (3.2) | Mean (±SEM) saccharin preference ratio (Rats [1]; 2.0 mg/kg): 0.411 (0.059) | ingestion (hedonic) taste reactions, Mean±SEM (Rats [1]; 4.0 mg/kg): 4.5 (1.5) | Mean (±SEM) saccharin preference ratio (Rats [1]; 4.0 mg/kg): 0.298 (0.074) | ingestion (hedonic) taste reactions, Mean±SEM (Rats [1]; 8.0 mg/kg): 1.3 (0.5) | Mean (±SEM) saccharin preference ratio (Rats [1]; 8.0 mg/kg): 0.088 (+0.017) | effect on chin rubbing or conditioned gaping (Rats [1]; 2.0, 4.0, 8.0 mg/kg): no significant effects | change of forskolin-stimulated cAMP accumulation (hCB1; CB1 transfected HEK cells, up to concentrations of 630 nM): did not change | effect on forskolin stimulated cAMP production (hCB1; HEK293 cells transfected with human CB1 receptors): no effect
SMILES: Cc1c(C(=O)NN2CCCCC2)nn(-c2ccc(Cl)cc2Cl)c1-c1ccc(C#CCCC#N)cc1 [Compound 3]
suppression of FR5 responding compared to vehicle (Rats [2]; IP 1.0, 2.0, 4.0, 8.0 mg/kg): significantly suppressed | ED50 (Rats [2]; Rattus norvegicus, IP, pretreatment 30 min, read-out: ED50 for the effect on FR5 responding): 0.78 mg/kg | change in lever pressing on FR5 compared to vehicle (Rats [2]; oral, 1 hour before testing (Compound 3 8.0-32.0 mg/kg; Compound 2 4.0-16.0 mg/kg)): no significant change

— patent US8293211B2, “CB1 receptor antagonists and uses thereof” (MAKScientific, LLC, priority 2007, dated 2012)
